Laboratory results taken from article PMC2409936, “Phase I and pharmacokinetic study of XR11576, an oral topoisomerase I and II inhibitor, administered on days 1–5 of a 3-weekly cycle in patients with advanced solid tumours” (British Journal of Cancer, 2004).

Assays:
[1] = Urinary excretion in patients; format: in vivo, human; conditions: within 24 h after drug administration
Experimental: All samples were centrifuged immediately after sampling at 3000 r.p.m. for 10 min at 4°C and the plasma was stored at −20°C or lower in polypropylene tubes in the dark until analysis. A total of four urine samples were also collected over a 24-h period; 0–4, 4–8, 8–12 and 12–24 h post-dosing on day 1 of the first cycle only. Of the total amount collected, a measured quantity of 10 ml was drawn off and stored at −80°C until analysis. Concentrations of XR11576 in plasma were determined according to a validated liquid chromatography-mass spectrometry detection method with liquid–liquid extraction at the Drug Metabolism and Pharmacokinetics Department of Quintiles Limited (Internal Report at Quintiles). The lower limit of quantitation was 5 ng ml^−1.
The apparent terminal half-life (T1/2(z)) of XR11576 was calculated as ln 2/k, where k is the terminal elimination rate constant (expressed in h^−1). The peak plasma concentrations (Cmax) and the time to peak plasma concentration (Tmax) were determined from the experimental values. […] The total body clearance (CL) was calculated as the ratio between the administered dose and the AUC0–∞. The extent of accumulation (R0) in plasma was calculated from AUC0–24 h (days 4 or 5)/AUC0–24 h (day 1). The fraction of the administered dose (Fe) excreted in urine and the cumulative amount of XR11576 excreted in urine (Ae) was determined. […]

[2] = tested on: animals; conditions: in animals; cited from earlier work

## COc1cccc2c1ccc1nc3cccc(C(=O)N[C@H](C)CN(C)C)c3nc12 [XR11576, 4-methoxy-benzo[a]phenazine-11-carboxylic acid (2-dimethulamino-1-R-methyl-ethyl)-amide]
[1]
  administered dose excreted unchanged in urine: Less than 0.5%
[2]
  predominantly induced toxicity: bone marrow and gastrointestinal toxicity
